According to ChEMBL document CHEMBL1152393, “Dopamine D(3) receptor antagonists: The quest for a potentially selective PET ligand. Part two: Lead optimization” (Bioorg Med Chem Lett, 2009):

System: Liver microsomes
Settings: human

| CL [mL/min/g] | Structure (SMILES) |
| --- | --- |
| 9.1 | N#Cc1cc(N2CCN(CCN3CCC(C(F)(F)F)CC3)C2=O)ccc1F |
| 1.6 | N#Cc1cccc(N2CCN(CCN3Cc4ccccc4C3)C2=O)c1 |

The remaining lines, values behind:

| Structure (SMILES) | CL [mL/min/g] |
| --- | --- |
| O=C1N(CCN2CCC(C(F)(F)F)CC2)CCN1c1cccc(Cl)c1 | 17.6 |
| O=C1N(CCN2Cc3ccccc3C2)CCN1c1cccc(Cl)c1 | 8.9 |
| CC(C)N1CCN(CCN2CCN(c3cccc(C#N)c3)C2=O)CC1 | < 0.5 |
